# Columns and labels:
# Enterococcus faecalis = assay: Antimicrobial activity against Enterococcus faecalis ATCC 14506 assessed as growth inhibition after 24 hr by broth microdilution method; assay type: functional; conditions: ATCC 14506, 24 h
# Escherichia coli = assay: Antimicrobial activity against Escherichia coli ATCC 10536 assessed as growth inhibition after 24 hr by broth microdilution method; assay type: functional; conditions: ATCC 10536, 24 h
# Klebsiella pneumoniae = assay: Antimicrobial activity against Klebsiella pneumoniae ATCC 10031 assessed as growth inhibition after 24 hr by broth microdilution method; assay type: functional; conditions: ATCC 10031, 24 h
# Pseudomonas aeruginosa = assay: Antimicrobial activity against Pseudomonas aeruginosa ATCC 10145 assessed as growth inhibition after 24 hr by broth microdilution method; assay type: functional; conditions: ATCC 10145, 24 h
# Bacillus subtilis = assay: Antimicrobial activity against Bacillus subtilis ATCC 60511 assessed as growth inhibition after 24 hr by broth microdilution method; assay type: functional; conditions: ATCC 60511, 24 h
# Staphylococcus aureus = assay: Antimicrobial activity against Staphylococcus aureus ATCC 11632 assessed as growth inhibition after 24 hr by broth microdilution method; assay type: functional; conditions: ATCC 11632, 24 h
# Saccharomyces cerevisiae = assay: Antimicrobial activity against Saccharomyces cerevisiae ATCC 9763 assessed as growth inhibition after 24 hr by broth microdilution method; assay type: functional; conditions: ATCC 9763, 24 h
# Aspergillus niger = assay: Antimicrobial activity against Aspergillus niger ATCC 6275 assessed as growth inhibition after 24 hr by broth microdilution method; assay type: functional; conditions: ATCC 6275, 24 h
# HeLa = assay: Anticancer activity against Homo sapiens (human) HeLa cells assessed as inhibition of cell viability after 96 hr by MTT assay; assay type: functional, cell-based
# MCF7 = assay: Anticancer activity against Homo sapiens (human) MCF7 cells assessed as inhibition of cell viability after 96 hr by MTT assay; assay type: functional, cell-based; conditions: MCF7, 96 h
# BGC-823 = assay: Anticancer activity against Homo sapiens (human) BGC823 cells assessed as inhibition of cell viability after 96 hr by MTT assay; assay type: functional, cell-based; conditions: BGC-823, 96 h
# A549 = assay: Anticancer activity against Homo sapiens (human) A549 cells assessed as inhibition of cell viability after 96 hr by MTT assay; assay type: functional, cell-based; conditions: A549, 96 h
# Candida tropicalis = assay: Antimicrobial activity against Candida tropicalis ATCC 1369 assessed as growth inhibition after 24 hr by broth microdilution method; assay type: functional; conditions: ATCC 1369, 24 h
# A2780 = assay: Anticancer activity against Homo sapiens (human) A2780 cells assessed as inhibition of cell viability after 96 hr by MTT assay; assay type: functional, cell-based; conditions: A2780, 96 h
SMILES,MIC (Enterococcus faecalis) [µg/mL],MIC (Escherichia coli) [µg/mL],MIC (Klebsiella pneumoniae) [µg/mL],MIC (Pseudomonas aeruginosa) [µg/mL],MIC (Bacillus subtilis) [µg/mL],MIC (Staphylococcus aureus) [µg/mL],MIC (Saccharomyces cerevisiae) [µg/mL],MIC (Aspergillus niger) [µg/mL],IC50 (HeLa) [nM],IC50 (MCF7) [nM],IC50 (BGC-823) [nM],IC50 (A549) [nM],MIC (Candida tropicalis) [µg/mL],IC50 (A2780) [nM]
Fc1cccc(F)c1C1CC(c2ccccc2)=NN1c1nc(-c2ccccc2)cs1 (stereo not given),8,31.2,62.5,62.5,8,31.2,62.5,125,5910,2230,2010,3010,125,3090
Fc1cccc(F)c1C1CC(c2ccccc2)=NN1C1=NC(c2ccc(Cl)cc2)S1 (stereo not given),125,8,16,62.5,31.2,31.2,4,8,4940,1690,1410,1560,8,2720
Oc1ccc(-c2csc(N3N=C(c4ccccc4)CC3c3c(F)cccc3F)n2)cc1 (stereo not given),125,62.5,16,62.5,31.2,16,31.2,16,7090,3040,2110,1570,125,2450
COc1ccc(C2N=C(N3N=C(c4ccccc4)CC3c3c(F)cccc3F)S2)cc1 (stereo not given),16,16,4,4,4,16,16,8,6490,2040,1230,2530,8,3260
O=C1CSC(N2N=C(c3ccccc3)CC2c2c(F)cccc2F)=N1 (stereo not given),16,62.5,16,16,31.2,16,31.2,31.2,6450,1940,2350,4580,31.2,5320
O=[N+]([O-])c1ccc(C2N=C(N3N=C(c4ccccc4)CC3c3c(F)cccc3F)S2)cc1 (stereo not given),16,31.2,31.2,8,62.5,31.2,8,125,6620,3220,6110,3260,125,4350
Fc1cccc(F)c1C1CC(c2ccccc2)=NN1C1=NC(c2ccccc2)S1 (stereo not given),8,16,16,62.5,31.2,16,62.5,125,5710,1720,1970,2110,31.2,4330
Fc1cccc(F)c1C1CC(c2ccccc2)=NN1c1nc(-c2cccnc2)cs1 (stereo not given),31.2,16,31.2,16,31.2,31.2,31.2,16,5980,2450,1110,1430,16,3180
Cc1ccc(C2N=C(N3N=C(c4ccccc4)CC3c3c(F)cccc3F)S2)cc1 (stereo not given),8,8,4,4,16,16,62.5,62.5,6590,3230,3220,4210,125,5140
OC(Cn1cncn1)(Cn1cncn1)c1ccc(F)cc1F [FLUCONAZOLE],,,,,,,≤ 1,≤ 1,,,,,≤ 1,
O=C(O)c1cn(C2CC2)c2cc(N3CCNCC3)c(F)cc2c1=O [CIPROFLOXACIN],≤ 5,≤ 1,≤ 1,5,≤ 1,≤ 5,,,,,,,,
Cc1ccc(-c2csc(N3N=C(c4ccccc4)CC3c3c(F)cccc3F)n2)cc1 (stereo not given),8,8,4,8,4,4,62.5,62.5,4860,2500,1200,1210,125,3030
Cc1ccc(/C=N/NC(=O)Cc2csc(N3N=C(c4ccccc4)CC3c3c(F)cccc3F)n2)cc1 (stereo not given),16,125,125,16,16,125,8,16,5910,1650,1450,1500,8,2620
O=C(/C=C/c1c(F)cccc1F)c1ccccc1,125,125,125,8,125,31.2,62.5,62.5,,,,,62.5,
Fc1cccc(F)c1C1CC(c2ccccc2)=NN1c1nc(-c2ccc(Br)cc2)cs1 (stereo not given),8,31.2,16,31.2,8,16,62.5,62.5,6120,2140,1340,1930,62.5,2450
Oc1ccc(C2N=C(N3N=C(c4ccccc4)CC3c3c(F)cccc3F)S2)cc1 (stereo not given),31.2,4,16,4,31.2,16,16,31.2,6230,4320,1040,3440,16,3140
CCn1cc(C(=O)O)c(=O)c2cc(F)c(N3CCNCC3)cc21 [NORFLOXACIN],5,≤ 1,≤ 1,5,≤ 1,5,,,,,,,,
NC(=S)N1N=C(c2ccccc2)CC1c1c(F)cccc1F (stereo not given),31.2,62.5,62.5,31.2,8,31.2,125,62.5,6250,2150,1840,2550,31.2,3620
O=[N+]([O-])c1ccc(-c2csc(N3N=C(c4ccccc4)CC3c3c(F)cccc3F)n2)cc1 (stereo not given),16,125,16,31.2,16,16,125,16,5760,2090,1050,1930,125,2260
Fc1cccc(F)c1C1CC(c2ccccc2)=NN1c1nc(-c2ccc(Cl)cc2)cs1 (stereo not given),8,16,125,31.2,31.2,62.5,125,62.5,6240,2760,1430,2110,62.5,3560
O=C(Cc1csc(N2N=C(c3ccccc3)CC2c2c(F)cccc2F)n1)N/N=C/c1c(F)cccc1F (stereo not given),16,4,8,8,62.5,16,16,16,4230,1200,1320,960,4,2540
CCOC(=O)Cc1csc(N2N=C(c3ccccc3)CC2c2c(F)cccc2F)n1 (stereo not given),31.2,8,8,8,31.2,16,62.5,62.5,6310,2110,3850,4180,31.2,3910
Fc1cccc(F)c1C1CC(c2ccccc2)=NN1C1=NC(c2ccc(Cl)cc2Cl)S1 (stereo not given),125,16,31.2,125,31.2,125,16,8,6130,1890,3310,3250,62.5,4510
